Assay results from ChEMBL document CHEMBL5303573, “Mapping human microbiome drug metabolism by gut bacteria and their genes” (Nature, 2019).

Tests used:
[1] = The drug is tested on Providencia rettgeri strain: DSM1131 for biotransformation. The drug concentrations were measured before and after a 12-h incubation by liquid-chromatography-coupled mass spectrometry (LC–MS); format: ADME; parameters: dose 2 uM, timepoint 0 vs 12 hours; conditions: 2 µM
[2] = The drug is tested on Bacteroides fragilis strain: ATCC43859 for biotransformation. The drug concentrations were measured before and after a 12-h incubation by liquid-chromatography-coupled mass spectrometry (LC–MS); conditions: 2 µM
[3] = bacteroides fragilis, 12 h, 2 µM
Description: The drug is tested on Bacteroides fragilis strain: NCTC 9343 for biotransformation. The drug concentrations were measured before and after a 12-h incubation by liquid-chromatography-coupled mass spectrometry (LC–MS)

[4] = The drug is tested on Bifidobacterium longum subsp. Infantis strain: CCUG52486 for biotransformation. The drug concentrations were measured before and after a 12-h incubation by liquid-chromatography-coupled mass spectrometry (LC–MS); conditions: 2 µM
[5] = The drug is tested on Clostridium scindens strain: ATCC35704 for biotransformation. The drug concentrations were measured before and after a 12-h incubation by liquid-chromatography-coupled mass spectrometry (LC–MS); conditions: 2 µM
[6] = The drug is tested on Bacteroides finegoldii strain: DSM17565 for biotransformation. The drug concentrations were measured before and after a 12-h incubation by liquid-chromatography-coupled mass spectrometry (LC–MS); conditions: 2 µM
[7] = bacteroides fragilis, 12 h, 2 µM; remark: listed apart in the source
Description: The drug is tested on Bacteroides fragilis strain: DS-208 for biotransformation. The drug concentrations were measured before and after a 12-h incubation by liquid-chromatography-coupled mass spectrometry (LC–MS)

[8] = The drug is tested on Bacteroides uniformis strain: ATCC8492 for biotransformation. The drug concentrations were measured before and after a 12-h incubation by liquid-chromatography-coupled mass spectrometry (LC–MS); conditions: 2 µM
[9] = The drug is tested on Bacteroides sp. WH2 strain: WH2 for biotransformation. The drug concentrations were measured before and after a 12-h incubation by liquid-chromatography-coupled mass spectrometry (LC–MS); conditions: bacteroides sp. wh2, 12 h, 2 µM
[10] = The drug is tested on Bifidobacterium ruminantium strain: fecal isolate for biotransformation. The drug concentrations were measured before and after a 12-h incubation by liquid-chromatography-coupled mass spectrometry (LC–MS); conditions: 2 µM
[11] = The drug is tested on Bacteroides pectinophilus strain: ATCC43243 for biotransformation. The drug concentrations were measured before and after a 12-h incubation by liquid-chromatography-coupled mass spectrometry (LC–MS); conditions: 2 µM
[12] = The drug is tested on Bacteroides fragilis strain: HMW615 for biotransformation. The drug concentrations were measured before and after a 12-h incubation by liquid-chromatography-coupled mass spectrometry (LC–MS); conditions: 2 µM
[13] = The drug is tested on Clostridium spiroforme strain: DSM1552 for biotransformation. The drug concentrations were measured before and after a 12-h incubation by liquid-chromatography-coupled mass spectrometry (LC–MS); conditions: thomasclavelia spiroformis, 2 µM
[14] = The drug is tested on Providencia stuartii strain: ATCC25827 for biotransformation. The drug concentrations were measured before and after a 12-h incubation by liquid-chromatography-coupled mass spectrometry (LC–MS); conditions: 2 µM
[15] = bacteroides thetaiotaomicron, 12 h, 2 µM
Description: The drug is tested on Bacteroides thetaiotaomicron strain: 7330 for biotransformation. The drug concentrations were measured before and after a 12-h incubation by liquid-chromatography-coupled mass spectrometry (LC–MS)

[16] = The drug is tested on Edwardsiella tarda strain: ATCC23685 for biotransformation. The drug concentrations were measured before and after a 12-h incubation by liquid-chromatography-coupled mass spectrometry (LC–MS); conditions: 2 µM
[17] = The drug is tested on Eubacterium hallii strain: DSM3353 for biotransformation. The drug concentrations were measured before and after a 12-h incubation by liquid-chromatography-coupled mass spectrometry (LC–MS); conditions: anaerobutyricum hallii, 2 µM
[18] = anaerostipes sp., 12 h, 2 µM
Description: The drug is tested on Anaerostipes sp. strain: fecal isolate for biotransformation. The drug concentrations were measured before and after a 12-h incubation by liquid-chromatography-coupled mass spectrometry (LC–MS)

[19] = The drug is tested on Collinsella aerofaciens strain: ATCC25986 for biotransformation. The drug concentrations were measured before and after a 12-h incubation by liquid-chromatography-coupled mass spectrometry (LC–MS); conditions: 2 µM
[20] = bacteroides intestinalis, 12 h, 2 µM
Description: The drug is tested on Bacteroides intestinalis strain: DSM17393 for biotransformation. The drug concentrations were measured before and after a 12-h incubation by liquid-chromatography-coupled mass spectrometry (LC–MS)

[21] = bacteroides stercoris, 12 h, 2 µM
Description: The drug is tested on Bacteroides stercoris strain: ATCC43183 for biotransformation. The drug concentrations were measured before and after a 12-h incubation by liquid-chromatography-coupled mass spectrometry (LC–MS)

[22] = enterocloster bolteae, 12 h, 2 µM
Description: The drug is tested on Clostridium bolteae strain: ATCCBAA-613 for biotransformation. The drug concentrations were measured before and after a 12-h incubation by liquid-chromatography-coupled mass spectrometry (LC–MS)

[23] = bifidobacterium adolescentis, 12 h, 2 µM
Description: The drug is tested on Bifidobacterium adolescentis strain: ATCC 15703 for biotransformation. The drug concentrations were measured before and after a 12-h incubation by liquid-chromatography-coupled mass spectrometry (LC–MS)

[24] = The drug is tested on Anaerococcus hydrogenalis strain: DSM7454 for biotransformation. The drug concentrations were measured before and after a 12-h incubation by liquid-chromatography-coupled mass spectrometry (LC–MS); conditions: 2 µM
[25] = The drug is tested on Clostridium symbiosum strain: ATCC14940 for biotransformation. The drug concentrations were measured before and after a 12-h incubation by liquid-chromatography-coupled mass spectrometry (LC–MS); conditions: 2 µM
[26] = The drug is tested on Enterobacter cancerogenus strain: ATCC35316 for biotransformation. The drug concentrations were measured before and after a 12-h incubation by liquid-chromatography-coupled mass spectrometry (LC–MS); conditions: 2 µM
[27] = limosilactobacillus reuteri cf48-3a, 12 h, 2 µM
Description: The drug is tested on Lactobacillus reuteri CF48-3A strain: BEI HM-102 for biotransformation. The drug concentrations were measured before and after a 12-h incubation by liquid-chromatography-coupled mass spectrometry (LC–MS)

[28] = The drug is tested on Bacteroides fragilis strain: HMW610 for biotransformation. The drug concentrations were measured before and after a 12-h incubation by liquid-chromatography-coupled mass spectrometry (LC–MS); conditions: 2 µM
[29] = parabacteroides distasonis, 12 h, 2 µM
Description: The drug is tested on Parabacteroides distasonis strain: ATCC8503 for biotransformation. The drug concentrations were measured before and after a 12-h incubation by liquid-chromatography-coupled mass spectrometry (LC–MS)

[30] = The drug is tested on Clostridium asparagiforme strain: DSM15981 for biotransformation. The drug concentrations were measured before and after a 12-h incubation by liquid-chromatography-coupled mass spectrometry (LC–MS); format: ADME; parameters: dose 2 uM, timepoint 0 vs 12 hours; conditions: enterocloster asparagiformis, 2 µM
[31] = The drug is tested on Bacteroides cellulosilyticus strain: DSM14838 for biotransformation. The drug concentrations were measured before and after a 12-h incubation by liquid-chromatography-coupled mass spectrometry (LC–MS); conditions: 2 µM
[32] = The drug is tested on Eubacterium rectale strain: ATCC33656 for biotransformation. The drug concentrations were measured before and after a 12-h incubation by liquid-chromatography-coupled mass spectrometry (LC–MS); conditions: agathobacter rectalis, 2 µM
[33] = clostridioides difficile, 12 h, 2 µM
Description: The drug is tested on Clostridium difficile strain: 120 for biotransformation. The drug concentrations were measured before and after a 12-h incubation by liquid-chromatography-coupled mass spectrometry (LC–MS)

[34] = The drug is tested on Bacteroides caccae strain: ATCC43185 for biotransformation. The drug concentrations were measured before and after a 12-h incubation by liquid-chromatography-coupled mass spectrometry (LC–MS); conditions: 2 µM
[35] = The drug is tested on Collinsella intestinalis strain: DSM13280 for biotransformation. The drug concentrations were measured before and after a 12-h incubation by liquid-chromatography-coupled mass spectrometry (LC–MS); conditions: 2 µM
[36] = bacteroides eggerthii, 12 h, 2 µM
Description: The drug is tested on Bacteroides eggerthii strain: DSM20697 for biotransformation. The drug concentrations were measured before and after a 12-h incubation by liquid-chromatography-coupled mass spectrometry (LC–MS)

[37] = parabacteroides johnsonii, 12 h, 2 µM
Description: The drug is tested on Parabacteroides johnsonii strain: DSM18315 for biotransformation. The drug concentrations were measured before and after a 12-h incubation by liquid-chromatography-coupled mass spectrometry (LC–MS)

[38] = The drug is tested on Clostridium hathewayi strain: DSM13479 for biotransformation. The drug concentrations were measured before and after a 12-h incubation by liquid-chromatography-coupled mass spectrometry (LC–MS); conditions: hungatella hathewayi, 2 µM
[39] = bacteroides fragilis, 12 h, 2 µM; remark: listed apart in the source
Description: The drug is tested on Bacteroides fragilis strain: 3397 (T10) for biotransformation. The drug concentrations were measured before and after a 12-h incubation by liquid-chromatography-coupled mass spectrometry (LC–MS)

[40] = segatella copri, 12 h, 2 µM
Description: The drug is tested on Prevotella copri strain: DSM18205 for biotransformation. The drug concentrations were measured before and after a 12-h incubation by liquid-chromatography-coupled mass spectrometry (LC–MS)

[41] = bacteroides thetaiotaomicron, 12 h, 2 µM; remark: listed apart in the source
Description: The drug is tested on Bacteroides thetaiotaomicron strain: 3731 for biotransformation. The drug concentrations were measured before and after a 12-h incubation by liquid-chromatography-coupled mass spectrometry (LC–MS)

[42] = The drug is tested on Blautia luti strain: DSM14534 for biotransformation. The drug concentrations were measured before and after a 12-h incubation by liquid-chromatography-coupled mass spectrometry (LC–MS); format: ADME; parameters: dose 2 uM, timepoint 0 vs 12 hours; conditions: 2 µM
[43] = The drug is tested on Clostridium ramosum strain: DSM1402 for biotransformation. The drug concentrations were measured before and after a 12-h incubation by liquid-chromatography-coupled mass spectrometry (LC–MS); conditions: thomasclavelia ramosa, 2 µM
[44] = The drug is tested on Anaerotruncus colihominis strain: DSM17241 for biotransformation. The drug concentrations were measured before and after a 12-h incubation by liquid-chromatography-coupled mass spectrometry (LC–MS); conditions: 2 µM
[45] = The drug is tested on Subdoligranulum variabile strain: DSM15176 for biotransformation. The drug concentrations were measured before and after a 12-h incubation by liquid-chromatography-coupled mass spectrometry (LC–MS); conditions: 2 µM

Structure (SMILES): CC(C)OC(=O)C(C)(C)Oc1ccc(C(=O)c2ccc(Cl)cc2)cc1 [FENOFIBRATE]
- Bacterial Biotransformation [1]: Compound NOT metabolized
- Bacterial Biotransformation [2]: Compound NOT metabolized
- Bacterial Biotransformation [3]: Compound metabolized
- Bacterial Biotransformation [4]: Compound NOT metabolized
- Bacterial Biotransformation [5]: Compound NOT metabolized
- Bacterial Biotransformation [6]: Compound NOT metabolized
- Bacterial Biotransformation [7]: Compound NOT metabolized
- Bacterial Biotransformation [8]: Compound metabolized
- Bacterial Biotransformation [9]: Compound NOT metabolized
- Bacterial Biotransformation [10]: Compound metabolized
- Bacterial Biotransformation [11]: Compound metabolized
- Bacterial Biotransformation [12]: Compound NOT metabolized
- Bacterial Biotransformation [13]: Compound NOT metabolized
- Bacterial Biotransformation [14]: Compound NOT metabolized
- Bacterial Biotransformation [15]: Compound NOT metabolized
- Bacterial Biotransformation [16]: Compound NOT metabolized
- Bacterial Biotransformation [17]: Compound NOT metabolized
- Bacterial Biotransformation [18]: Compound metabolized
- Bacterial Biotransformation [19]: Compound NOT metabolized
- Bacterial Biotransformation [20]: Compound NOT metabolized
- Bacterial Biotransformation [21]: Compound NOT metabolized
- Bacterial Biotransformation [22]: Compound NOT metabolized
- Bacterial Biotransformation [23]: Compound NOT metabolized
- Bacterial Biotransformation [24]: Compound NOT metabolized
- Bacterial Biotransformation [25]: Compound NOT metabolized
- Bacterial Biotransformation [26]: Compound NOT metabolized
- Bacterial Biotransformation [27]: Compound NOT metabolized
- Bacterial Biotransformation [28]: Compound NOT metabolized
- Bacterial Biotransformation [29]: Compound NOT metabolized
- Bacterial Biotransformation [30]: Compound metabolized
- Bacterial Biotransformation [31]: Compound NOT metabolized
- Bacterial Biotransformation [32]: Compound NOT metabolized
- Bacterial Biotransformation [33]: Compound metabolized
- Bacterial Biotransformation [34]: Compound NOT metabolized
- Bacterial Biotransformation [35]: Compound NOT metabolized
- Bacterial Biotransformation [36]: Compound metabolized
- Bacterial Biotransformation [37]: Compound metabolized
- Bacterial Biotransformation [38]: Compound metabolized
- Bacterial Biotransformation [39]: Compound NOT metabolized
- Bacterial Biotransformation [40]: Compound metabolized
- Bacterial Biotransformation [41]: Compound NOT metabolized
- Bacterial Biotransformation [42]: Compound metabolized
- Bacterial Biotransformation [43]: Compound NOT metabolized
- Bacterial Biotransformation [44]: Compound metabolized
- Bacterial Biotransformation [45]: Compound NOT metabolized
